Activity calls are given as the source filed them. No cut-off for these calls is given here.
Legend:
[1] = molecular target: T1, Protein cereblon/Dual specificity tyrosine-phosphorylation-regulated kinase 1A (Homo sapiens, UniProt Q13627+Q96SW2); assay: Competitive binding affinity to CRBN/DYRK1A (unknown origin) assessed as dissociation constant; type: protein assay
[2] = molecular target: Protein cereblon/Dual specificity tyrosine-phosphorylation-regulated kinase 1B (Homo sapiens, UniProt Q96SW2+Q9Y463); assay: Competitive binding affinity to CRBN/DYRK1B (unknown origin) assessed as dissociation constant; type: protein assay
[3] = molecular target: T1, Protein cereblon/Dual specificity tyrosine-phosphorylation-regulated kinase 1A; assay: PROTAC activity at CRBN/HibiT-tagged DYRK1A in Flp-In-T-REx-293 cells assessed as induction of degradation of DYRK1A by measuring maximum efficacy at 1 uM measured after 24 hrs by NanoBiT luciferase assay relative to control; type: cell-based
[4] = molecular target: T2, Protein cereblon/Dual specificity tyrosine-phosphorylation-regulated kinase 1B (Homo sapiens) (UniProt Q9Y463+Q96SW2); assay: PROTAC activity at CRBN/HibiT-tagged DYRK1B in Flp-In-T-REx-293 cells assessed as induction of degradation of DYRK1B by measuring maximum efficacy at 1 uM measured after 24 hrs by NanoBiT luciferase assay relative to control; type: cell-based
[5] = molecular target: Protein cereblon/DNA damage-binding protein 1 (Homo sapiens, UniProt Q96SW2); assay: Displacement of Cy5-tagged thalidomide-like probe from recombinant CRBN/DDB1 (unknown origin) by competitive binding assay; type: protein assay
[6] = molecular target: von Hippel-Lindau disease tumor suppressor/Dual specificity tyrosine-phosphorylation-regulated kinase 1A (Homo sapiens) (UniProt Q13627+P40337); assay: PROTAC activity at VHL/HibiT-tagged DYRK1A in Flp-In-T-REx-293 cells assessed as induction of degradation of DYRK1A by measuring maximum efficacy at 0.3 uM measured after 24 hrs by NanoBiT luciferase assay relative to control; type: cell-based
[7] = molecular target: von Hippel-Lindau disease tumor suppressor/Dual specificity tyrosine-phosphorylation-regulated kinase 1B (Homo sapiens, UniProt P40337+Q9Y463); assay: Competitive binding affinity to VHL/DYRK1B (unknown origin) assessed as dissociation constant; type: protein assay
[8] = molecular target: von Hippel-Lindau disease tumor suppressor/Dual specificity tyrosine-phosphorylation-regulated kinase 1B (Homo sapiens) (UniProt Q9Y463+P40337); assay: PROTAC activity at VHL/HibiT-tagged DYRK1B in Flp-In-T-REx-293 cells assessed as induction of degradation of DYRK1B by measuring maximum efficacy at 0.3 uM measured after 24 hrs by NanoBiT luciferase assay relative to control; type: cell-based
[9] = molecular target: von Hippel-Lindau disease tumor suppressor/Dual specificity tyrosine-phosphorylation-regulated kinase 1A (Homo sapiens, UniProt P40337+Q13627); assay: Competitive binding affinity to VHL/DYRK1A (unknown origin) assessed as dissociation constant by competition binding assay; type: protein assay
[10] = molecular target: T2, Protein cereblon/Dual specificity tyrosine-phosphorylation-regulated kinase 1B (Homo sapiens); assay: PROTAC activity at CRBN/HibiT-tagged DYRK1B in Flp-In-T-REx-293 cells assessed as induction of degradation of DYRK1B by measuring maximum efficacy at 0.3 uM measured after 24 hrs by NanoBiT luciferase assay relative to control; type: cell-based
[11] = molecular target: T1, Protein cereblon/Dual specificity tyrosine-phosphorylation-regulated kinase 1A; assay: PROTAC activity at CRBN/HibiT-tagged DYRK1A in Flp-In-T-REx-293 cells assessed as induction of degradation of DYRK1A by measuring maximum efficacy at 0.3 uM measured after 24 hrs by NanoBiT luciferase assay relative to control; type: cell-based
[12] = molecular target: T1, Protein cereblon/Dual specificity tyrosine-phosphorylation-regulated kinase 1A; assay: PROTAC activity at CRBN/DYRK1A in HEK293 cells expressing GFP-SF3B1 assessed as inhibition of SF3B1 phosphorylation at 10 to 100 nM measured for 24 hrs by Western blot analysis; type: cell-based; conditions: dose 10-100 nM
[13] = molecular target: T1, Protein cereblon/Dual specificity tyrosine-phosphorylation-regulated kinase 1A; assay: PROTAC activity at CRBN/HibiT-tagged DYRK1A in Flp-In-T-REx-293 cells assessed as induction of degradation of DYRK1A at 100 nM by measured after 24 hrs by NanoBiT luciferase assay; type: cell-based
[14] = molecular target: T1, Protein cereblon/Dual specificity tyrosine-phosphorylation-regulated kinase 1A; assay: PROTAC activity at CRBN/HibiT-tagged DYRK1A in Flp-In-T-REx-293 cells assessed as induction of degradation of DYRK1A at 1 uM by measured after 24 hrs by NanoBiT luciferase assay; type: cell-based
[15] = molecular target: Casein kinase I isoform epsilon (Homo sapiens) (UniProt P49674); assay: Binding affinity to human wild type full length CSNK1E (M1 to K416 residues) expressed in Bacterial expression system at 1 uM by kinome scan assay relative to control
[16] = molecular target: T3, Dual specificity tyrosine-phosphorylation-regulated kinase 1A (Homo sapiens, UniProt Q13627); assay: Binding affinity to DYRK1A (unknown origin) assessed as dissociation constant
[17] = molecular target: Homeodomain-interacting protein kinase 2 (Homo sapiens) (UniProt Q9H2X6); assay: Binding affinity to human wild type partial length HIPK2 (M153 to S564 residues) expressed in mammalian expression system at 1 uM by kinome scan assay relative to control
[18] = molecular target: T3, Dual specificity tyrosine-phosphorylation-regulated kinase 1A; assay: Binding affinity to human wild type partial length DYRK1A (H129 to S509 residues) expressed in mammalian expression system at 1 uM by kinome scan assay relative to control
[19] = molecular target: Homeodomain-interacting protein kinase 3 (Homo sapiens) (UniProt Q9H422); assay: Binding affinity to human wild type full length HIPK3 (M1 to L344 residues) expressed in mammalian expression system at 1 uM by kinome scan assay relative to control
[20] = molecular target: Dual specificity protein kinase CLK1 (Homo sapiens) (UniProt P49759); assay: Binding affinity to human wild type full length CLK1 (M1 to I484 residues) expressed in Bacterial expression system at 1 uM by kinome scan assay relative to control
[21] = molecular target: T4, Serine/threonine-protein kinase haspin (Homo sapiens) (UniProt Q8TF76); assay: Binding affinity to human wild type partial length Haspin (I452 to K798 residues) expressed in mammalian expression system at 1 uM by kinome scan assay relative to control
T4 sequence (whole entry): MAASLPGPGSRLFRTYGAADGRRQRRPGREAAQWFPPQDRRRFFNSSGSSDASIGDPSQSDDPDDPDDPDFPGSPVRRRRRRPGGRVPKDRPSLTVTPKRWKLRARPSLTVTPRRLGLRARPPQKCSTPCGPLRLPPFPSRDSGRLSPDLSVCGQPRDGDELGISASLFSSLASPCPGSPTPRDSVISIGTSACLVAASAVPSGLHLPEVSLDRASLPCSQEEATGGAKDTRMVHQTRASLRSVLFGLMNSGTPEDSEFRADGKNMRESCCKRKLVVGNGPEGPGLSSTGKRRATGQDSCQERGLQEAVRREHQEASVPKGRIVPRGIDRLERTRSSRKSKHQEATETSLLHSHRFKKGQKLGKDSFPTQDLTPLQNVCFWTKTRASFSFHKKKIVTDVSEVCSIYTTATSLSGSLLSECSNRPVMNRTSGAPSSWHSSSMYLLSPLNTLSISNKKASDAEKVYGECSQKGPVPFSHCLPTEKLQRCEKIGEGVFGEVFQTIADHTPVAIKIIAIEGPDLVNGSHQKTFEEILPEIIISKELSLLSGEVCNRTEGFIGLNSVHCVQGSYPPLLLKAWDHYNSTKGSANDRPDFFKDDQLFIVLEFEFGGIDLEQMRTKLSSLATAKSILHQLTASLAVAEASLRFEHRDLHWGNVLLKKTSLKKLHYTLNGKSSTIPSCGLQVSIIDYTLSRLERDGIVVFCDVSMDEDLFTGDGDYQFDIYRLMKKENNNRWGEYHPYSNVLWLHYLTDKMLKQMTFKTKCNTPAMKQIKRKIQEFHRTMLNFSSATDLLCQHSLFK

[22] = molecular target: Homeodomain-interacting protein kinase 3 (Homo sapiens) (UniProt Q9H422); assay: Binding affinity to human wild type partial length HIPK3 (M153 to N562 residues) expressed in mammalian expression system at 1 uM by kinome scan assay relative to control

Kd [1]	Kd [2]	Emax [3]	Emax [4]	SMILES	also measured
1.7 nM	5.2 nM	75%	54%	Cc1nc2ccc(-c3ccnc(N)c3)nc2n1-c1ccc(N2CCN(C(=O)CCCN3CCN(Cc4ccc(CNc5cccc6c5CN(C5CCC(=O)NC5=O)C6=O)cc4)CC3)CC2)c(F)c1 (stereo not drawn)	–
–	–	–	–	O=C1CCC(N2C(=O)c3cccc(NCc4cnn(C5CCN(C(=O)C6CCN(c7ccccn7)CC6)CC5)c4)c3C2=O)C(=O)N1 (stereo not drawn)	IC50 [5]: 13300 nM
0.64 nM	–	78%	65%	Cc1nc2ccc(-c3ccnc(N)c3)nc2n1-c1ccc(N2CCN(C(=O)CN3CCC(CC(=O)N4CCC(n5cc(CNc6cccc7c6C(=O)N(C6CCC(=O)NC6=O)C7=O)cn5)CC4)CC3)CC2)c(F)c1 (stereo not drawn)	–
–	–	–	–	Cc1ncsc1-c1ccc(CNC(=O)[C@@H]2C[C@@H](O)CN2C(=O)[C@@H](NC(=O)CCOCCOCCN2CCN(c3ccc(-n4c(C)nc5ccc(-c6ccnc(N)c6)nc54)cc3F)CC2)C(C)(C)C)cc1	Emax [6]: 5%; Kd [7]: 6.9 nM; Emax [8]: 2%; Kd [9]: 2.2 nM
20 nM	47 nM	24%	14%	Cc1nc2ccc(-c3ccnc(N)c3)nc2n1-c1ccc(N2CCN(C(=O)CCN3CCN(Cc4ccc(CNc5cccc6c5CN(C5CCC(=O)NC5=O)C6=O)cc4)CC3)CC2)c(F)c1 (stereo not drawn)	–
3.3 nM	8.4 nM	63%	38%	Cc1nc2ccc(-c3ccnc(N)c3)nc2n1-c1ccc(N2CCN(C(=O)CCCCN3CCN(Cc4ccc(CNc5cccc6c5CN(C5CCC(=O)NC5=O)C6=O)cc4)CC3)CC2)c(F)c1 (stereo not drawn)	–
–	–	–	–	Cc1ncsc1-c1ccc(CNC(=O)[C@@H]2C[C@@H](O)CN2C(=O)[C@@H](NC(=O)CCOCCOCCOCCN2CCN(c3ccc(-n4c(C)nc5ccc(-c6ccnc(N)c6)nc54)cc3F)CC2)C(C)(C)C)cc1	Emax [6]: 0%; Kd [7]: 3.6 nM; Emax [8]: 0%; Kd [9]: 1.3 nM
–	–	–	–	Cc1ncsc1-c1ccc(CNC(=O)[C@@H]2C[C@@H](O)CN2C(=O)[C@@H](NC(=O)CCOCCN2CCN(c3ccc(-n4c(C)nc5ccc(-c6ccnc(N)c6)nc54)cc3F)CC2)C(C)(C)C)cc1	Emax [6]: 11%; Kd [7]: 5.5 nM; Emax [8]: 0%; Kd [9]: 3.4 nM
2.3 nM	3.4 nM	–	–	Cc1nc2ccc(-c3ccnc(N)c3)nc2n1-c1ccc(N2CCN(CCOCCOCCOCCNc3cccc4c3C(=O)N(C3CCC(=O)NC3=O)C4=O)CC2)c(F)c1 (stereo not drawn)	Emax [10]: 28%; Emax [11]: 60%
5.9 nM	–	9%	0%	Cc1nc2ccc(-c3ccnc(N)c3)nc2n1-c1ccc(N2CCN(CCOCCOCCOCCC(=O)N3CCN(c4ccc5c(c4)C(=O)N(C4CCC(=O)NC4=O)C5=O)CC3)CC2)c(F)c1 (stereo not drawn)	–
5.6 nM	16 nM	0%	0%	Cc1nc2ccc(-c3ccnc(N)c3)nc2n1-c1ccc(N2CCN(CCOCCOCCOCCC(=O)N3CCN(Cc4ccc(CNc5cccc6c5CN(C5CCC(=O)NC5=O)C6=O)cc4)CC3)CC2)c(F)c1 (stereo not drawn)	–
1.4 nM	3.5 nM	–	–	Cc1nc2ccc(-c3ccnc(N)c3)nc2n1-c1ccc(N2CCN(CCOCCOCCNc3cccc4c3C(=O)N(C3CCC(=O)NC3=O)C4=O)CC2)c(F)c1 (stereo not drawn)	Emax [10]: 25%; Emax [11]: 52%
–	–	–	–	Cc1nc2ccc(-c3ccnc(N)c3)nc2n1-c1ccc(N2CCN(CC#Cc3ccc(N4CCC(C(=O)N5CCC(n6cc(CNc7cccc8c7C(=O)N(C7CCC(=O)N(C)C7=O)C8=O)cn6)CC5)CC4)nc3)CC2)c(F)c1 (stereo not drawn)	Activity [12]: Active; Compound Partially Suppress The Phosphorylation; Activity [13]: inactive; Activity [14]: Active; Compound Showed Modest Degradation
2.8 nM	5.1 nM	79%	63%	Cc1nc2ccc(-c3ccnc(N)c3)nc2n1-c1ccc(N2CCN(C(=O)CCCN3CCC(n4cc(CNc5cccc6c5C(=O)N(C5CCC(=O)NC5=O)C6=O)cn4)CC3)CC2)c(F)c1 (stereo not drawn)	–
–	–	–	–	Cc1ncsc1-c1ccc(CNC(=O)[C@@H]2C[C@@H](O)CN2C(=O)[C@@H](NC(=O)CCOCCOCCOCCOCCN2CCN(c3ccc(-n4c(C)nc5ccc(-c6ccnc(N)c6)nc54)cc3F)CC2)C(C)(C)C)cc1	Emax [6]: 0%; Kd [7]: 6.6 nM; Emax [8]: 0%; Kd [9]: 1.4 nM
1.4 nM	2.4 nM	–	–	Cc1nc2ccc(-c3ccnc(N)c3)nc2n1-c1ccc(N2CCN(CCOCCNc3cccc4c3C(=O)N(C3CCC(=O)NC3=O)C4=O)CC2)c(F)c1 (stereo not drawn)	Emax [10]: 0%; Emax [11]: 40%
3.2 nM	–	27%	0%	Cc1nc2ccc(-c3ccnc(N)c3)nc2n1-c1ccc(N2CCN(CCOCCOCCOCCC(=O)NC3CN(c4ccc5c(c4)C(=O)N(C4CCC(=O)NC4=O)C5=O)C3)CC2)c(F)c1 (stereo not drawn)	–
13 nM	43 nM	80%	58%	Cc1nc2ccc(-c3ccnc(N)c3)nc2n1-c1ccc(N2CCN(CCOCCOCCOCCOCCNc3cc4c(cc3F)C(=O)N(C3CCC(=O)NC3=O)C4=O)CC2)c(F)c1 (stereo not drawn)	–
–	–	–	–	Cc1nc2ccc(-c3ccnc(N)c3)nc2n1-c1ccc(N2CCN(C)CC2)cc1F	Activity [15]: 0.3%; Kd [16]: 0.91 nM; Activity [17]: 0.3%; Activity [18]: 0%; Activity [19]: 0.7%; Activity [20]: 0.5%; Activity [21]: 0.2%; Activity [22]: 0.7%

Source: ChEMBL document CHEMBL6120970, “Discovery and Functional Characterization of a Potent, Selective, and Metabolically Stable PROTAC of the Protein Kinases DYRK1A and DYRK1B” (J Med Chem, 2024)
